{
  "source": "the supplement of paper PMC3493320",
  "data": [
    {"tested_on": "NCI-H295R", "assay": "IC50 (antiproliferative, ATP content)", "conditions": "48 h", "summary_of_the_method": "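Cell viability of adrenocortical carcinoma cells was assessed as ATP by CellTiter-Glo luminescence. Cells at 1500 per well in 1536-well plates, in serum-free DMEM with ITS, received compounds by pin transfer at 8 final concentrations (0.6 nM–46 µM) after overnight culture and were then held 48 h at 37 °C, 5% CO2. IC50 was calculated by logistic fitting against vehicle and positive-control wells, compounds with no concentration response being recorded as above the top dose.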", "units": {"IC50": "µM"}, "values": [
      {"smiles": "CC[N+](CC)(CC)CCOc1ccc(/C=C/c2ccccc2)cc1.[I-]", "IC50": "> 46"},
      {"smiles": "N=C(N)NCCN1CCCCCCC1.O=S(=O)(O)O.O=S(=O)(O)O", "IC50": "> 46"},
      {"smiles": "CNC(=O)c1c(I)c(C(=O)NCC(=O)Nc2c(I)c(C(=O)O)c(I)c(C(=O)NCCO)c2I)c(I)c(N(C)C(C)=O)c1I", "IC50": "> 46"},
      {"smiles": "CCC1(CC)C(=O)C=CNC1=O", "IC50": "> 46"},
      {"smiles": "CC(=O)Oc1ccccc1C(=O)O", "IC50": "> 46"},
      {"smiles": "CCCC(C)C1(CC)C(=O)N=C([S-])NC1=O.[Na+]", "note": "(stereo unspecified)", "IC50": "> 46"},
      {"smiles": "CCOc1ccccc1O[C@H](c1ccccc1)[C@H]1CNCCO1.CS(=O)(=O)O", "IC50": "> 46"},
      {"smiles": "CCCCOC(=O)c1ccc(O)cc1", "IC50": "> 46"},
      {"smiles": "Cc1c(C)n(CCN(C)C)c2ccc(C(=O)OCCN(C)C)cc12", "IC50": "> 46"},
      {"smiles": "CN1CCN(c2cc3c(cc2F)c(=O)c(C(=O)O)cn3-c2ccc(F)cc2)CC1.Cl", "IC50": "> 46"},
      {"smiles": "[NH2][Pt]([NH2])([Cl])[Cl]", "IC50": "> 46"},
      {"smiles": "c1cnc(N2CCN(Cc3ccc4c(c3)OCO4)CC2)nc1", "IC50": "> 46"},
      {"smiles": "COc1nc(N)nc2c1ncn2[C@@H]1O[C@H](CO)[C@@H](O)[C@@H]1O", "IC50": "> 46"},
      {"smiles": "COc1ccc2c(c1OC)C(=O)O[C@H]2[C@@H]1c2cc3c(cc2CCN1C)OCO3", "IC50": "> 46"},
      {"smiles": "CCC(N)Cc1c[nH]c2ccccc12", "note": "(stereo unspecified)", "IC50": "> 46"},
      {"smiles": "CC(=O)Nc1ccc(OC(C)=O)cc1", "IC50": "> 46"},
      {"smiles": "Cc1nc2ccc(CN(C)c3ccc(C(=O)N[C@@H](CCC(=O)O)C(=O)O)s3)cc2c(=O)[nH]1", "IC50": "> 46"},
      {"smiles": "C[C@@H](CC)C(=O)O[C@H]2C[C@@H](C)\\C=C3\\C=C/[C@H](C)[C@H](CC[C@@H]1C[C@@H](O)CC(=O)O1)[C@@H]23", "IC50": "> 46"},
      {"smiles": "COc1cnc(NS(=O)(=O)c2ccc(N)cc2)nc1", "IC50": "> 46"},
      {"smiles": "O=C1C[C@@H]([C@](N[C@@H](CC3=CNC=N3)C(N2[C@]([H])(C(N)=O)CCC2)=O)=O)NC(N1C)=O", "IC50": "> 46"},
      {"smiles": "Cc1cnc(C(=O)NCCc2ccc(S(=O)(=O)NC(=O)NC3CCCCC3)cc2)cn1", "IC50": "> 46"},
      {"smiles": "CCC1Nc2cc(Cl)c(S(N)(=O)=O)cc2S(=O)(=O)N1", "note": "(stereo unspecified)", "IC50": "> 46"},
      {"smiles": "[H][C@]13[C@](O3)([H])[C@@H]2CC(OC(C(C4=CC=CS4)(C5=CC=CS5)O)=O)C[C@H]1[N@@+](C)2C.[Br-]", "note": "(stereo partly specified)", "IC50": "> 46"},
      {"smiles": "CCCCOCCOCCOCc1cc2c(cc1CCC)OCO2", "IC50": "> 46"},
      {"smiles": "O=C1O[C@H](CO)[C@@H](O)[C@H](O)[C@H]1O", "IC50": "> 46"},
      {"smiles": "COc1cc(Cc2cnc(N)nc2N)cc(OC)c1OC", "IC50": "> 46"},
      {"smiles": "CCOc1ccccc1C(N)=O", "IC50": "> 46"},
      {"smiles": "C[C@@H]1CN([C@H]2CC[C@](C#N)(c3ccc(F)cc3)CC2)CC[C@]1(C(=O)O)c1ccccc1.Cl", "IC50": "> 46"},
      {"smiles": "O[C@H]1[C@@H]([C@H](O)CO)O[C@H]2[C@@H]1O[C@H]([C@@](Cl)(Cl)Cl)O2", "IC50": "> 46"},
      {"smiles": "CCCN1C[C@H](CSC)C[C@@H]2c3cccc4[nH]cc(c34)C[C@H]21.CS(=O)(=O)O", "IC50": "> 46"},
      {"smiles": "CCCCCCCCCCOc1cc2c(O)c(C(=O)OCC)cnc2cc1OCC", "IC50": "> 46"},
      {"smiles": "Cc1ccc(S(=O)(=O)NC(=O)N[C@@H](C)Cc2ccccc2)cc1", "IC50": "> 46"},
      {"smiles": "N=C(N)NS(=O)(=O)c1ccc(N)cc1", "IC50": "> 46"},
      {"smiles": "CCCCCCCCCCCC(=O)OCC(O)CO", "note": "(stereo unspecified)", "IC50": "> 46"},
      {"smiles": "CN1CCN(C(c2ccccc2)c2ccccc2)CC1.Cl.Cl", "IC50": "> 46"},
      {"smiles": "Cl.O=C(NC1CCN(CCc2c[nH]c3ccccc23)CC1)c1ccccc1", "IC50": "> 46"},
      {"smiles": "Cc1c(OCC(F)(F)F)ccnc1CS(=O)c1nc2ccccc2[nH]1", "note": "(stereo unspecified)", "IC50": "> 46"},
      {"smiles": "N[C@@H](Cc1ccc(O)c(O)c1)C(=O)O", "IC50": "> 46"},
      {"smiles": "O=C(O)c1cccnc1", "IC50": "> 46"},
      {"smiles": "O.O=C(/C=C/C(O)c1ccc(Cl)cc1)[O][Na]", "note": "(stereo unspecified)", "IC50": "> 46"},
      {"smiles": "Cc1cccc(C)c1NC(=O)CC12CCCN1CCC2", "IC50": "> 46"},
      {"smiles": "O=C(NCNC(=O)NC1C(=O)NC(=O)N1CO)NC1C(=O)NC(=O)N1CO", "note": "(stereo unspecified)", "IC50": "> 46"},
      {"smiles": "COc1ccc(CC2c3cc(OC)c(OC)cc3CC[N+]2(C)CCC(=O)OCCCCCOC(=O)CC[N+]2(C)CCc3cc(OC)c(OC)cc3C2Cc2ccc(OC)c(OC)c2)cc1OC.O=S(=O)([O-])c1ccccc1.O=S(=O)([O-])c1ccccc1", "note": "(stereo unspecified)", "IC50": "> 46"},
      {"smiles": "CCOC(=O)n1ccn(C)c1=S", "IC50": "> 46"},
      {"smiles": "O=C([O-])CC(O)C(=O)[O-].[Na+].[Na+]", "note": "(stereo unspecified)", "IC50": "> 46"},
      {"smiles": "Nc1nc(O)c(-c2ccccc2)o1", "IC50": "> 46"}
    ]}
  ]
}
